Assay results as given in US20240050409A1, “Methods and Compositions for Treating Psychotic Disorders” (SOUND PHARMACEUTICALS INCORPORATED, priority 2014, published 2024).
Entries after “also recorded” stand apart in the source; their conditions may differ. Where two headings read alike, the source gives them in different places.

How the values were obtained:
NVHL rats = test: Prepulse inhibition of the acoustic startle response (PPI) in NVHL rats; assay type: in vivo, Sprague-Dawley rats; conditions: adult NVHL rats
Protocol: To assess whether juvenile oxidative stress leads to behavioral deficits, a behavioral paradigm was used for testing in both animal models and schizophrenia patients. Prepulse inhibition of the acoustic startle response (PPI) is a measure of sensorimotor gating that is reduced in patients (Geyer and Braff, 1987) and NVHL rats (Lipska et al., 1995). PPI was tested in adult sham (n=11), NAC-treated sham (n=12), NVHL (n=9), and NAC-treated NVHL rats (n=17). In addition to loss of PVI maturation and electrophysiological anomalies, developmental oxidative stress in juvenile NVHL rats can cause schizophrenia-relevant adult behavioral deficits.
The beneficial effect of NAC treatment includes a large postnatal treatment that starts prior to the lesion and stops once rats become young adults. For full translational value one determines whether NAC is efficacious when started at an age that corresponds to the time when prodromal stages can be identified in humans. In another set of rats, NAC was administered in the drinking water starting at P35, an age that in rats is equivalent to early adolescence. For PPI deficits was tested in adult SHAM (n=15), untreated NVHL (n=12), and NAC-treated NVHL rats (n=14).
Ebselen is a glutathione peroxidase (GPx) mimic (Muller et al., 1984) that induces GPx expression (Kil et al., 2007) and enhances GSH levels in neurons, replenishing GSH depleted by neurotoxic mechanisms (Pawlas and Malecki, 2007). PPI was tested in adult vehicle-treated SHAM (n=10), Ebselen-treated SHAM (n=7), vehicle-treated NVHL (n=8), and Ebselen-treated NVHL rats (n=9), and Ebselen treatment during adolescence reversed PPI deficits in NVHL rats (as shown in FIG. 15D).
In another group of rats, the effects of the NADPH oxidase inhibitor Apocynin was assessed while delivering through juvenile and adolescent stages. PPI was tested in adult vehicle-treated SHAM (n=10), apocynin-treated SHAM (n=11), vehicle treated NHVL (n=7), and apocynin-treated NVHL (n=5). As illustrated in FIG. 15C a reversal of PPI deficits was observed.
Antioxidant pretreatment regimen: NAC (BioAdvantexPharma, Mississauga, Ontario, Canada) was administered in the drinking water at 900 mg/l. NAC treatment started at P5 or at P35, and previous work in mice has shown that NAC consumed by the dam is transmitted to the pups through her milk (das Neves Duarte et al., 2012). NAC treatment ended at P50. Fresh solutions were prepared every 2-3 days. Ebselen (Sound Pharmaceuticals Inc., Seattle, WA) was administered i.p. 5 days a week starting at P35 until the day of PPI testing (P60). Stock ebselen solution (20 mg/ml DMSO, frozen aliquots) was diluted 1:5 in sterile water and administered at a dose of 10 mg/kg. Control animals received an equivalent concentration of DMSO diluted 1:5 in water. Apocynin (Sigma-Aldrich, St. Louis, MO) was administered in the drinking water at a target dose of 100 mg/kg (Nwokocha et al., 2013). Prior to weaning at P21, drinking water contained a dose of 2 g apocynin per 0.5 1 of water, to ensure delivery through the dam's milk. Apocynin concentration was lowered after weaning to 750 mg/1 to best approximate the target dose. Treatment lasted from P5 to P50 with fresh solutions prepared every other day.
Prepulse inhibition: Starting at P60, both male and female rats were tested for PPI, as described previously (Feleder et al., 2010). As PPI deficits in NVHL rats are most evident when rats are challenged with apomorphine (Lipska et al., 1995), we injected apomorphine (0.1 mg/kg, i.p.) immediately prior to the PPI test session. Rats were placed in a sound- attenuated startle chamber (San Diego Instruments, San Diego, CA) with a 70 dB background white noise. After a 5 min adaptation period, the PPI test was initiated with pseudorandom trials every 15 to 25 seconds. Either pulse (120 dB), prepulse (75 dB, 80 dB, or 85 dB), no pulse or prepulse +pulse were delivered. […]

[1] = tested on: N-methyl-D-asparatate receptors redox modulatory site; conditions: cited from earlier work
[2] = Ph-1 placebo-controlled, randomized, single ascending dose study: pharmacokinetics; assay type: in vivo; conditions: humans, single dose 200 mg to 1600 mg
Protocol: (§1) Ebselen has excellent oral availability (Fisher et al., 1988). Brain level was about 20% of the plasma level (Imai, et al., 2001, Ullrich, et al., 1996). […] A Ph-1 study was conducted in 32 humans in a placebo-controlled, randomized, single ascending dose design. Ebselen ranged from 200 mg to 1600 mg in the formulation. (1) Pharmacokinetics: The PK parameters of ebselen and its three metabolites were published (Lynch, et al., 2009). […] The tabulated side effects were published in Lynch, et al., 2009.

neurons = conditions: cited from earlier work
[3] = in vivo; cited from earlier work
[4] = in vivo; cited from earlier work; remark: listed apart in the source
mini-pigs = test: Chronic toxicity studies 26 and 52 weeks, mini-pigs; assay type: in vivo
Protocol: (§2) Seven acute and repeated dose toxicology studies were conducted in Sprague-Dawley rats, Sinclair miniature swine, and Cynomolgus monkey, and three genotoxicology studies.

rats [5] = test: Chronic toxicity studies 26 and 52 weeks, rats; assay type: in vivo
Protocol: as §2

[6] = Solubility of ebselen in aqueous solutions; assay type: physicochemical; conditions: 25° Celsius
Protocol: Ebselen is the only active ingredient administered in a formulation. […] Ebselen acts as a catalyst and is not consumed during detoxification reactions (Muller et. al, 1988). An embodiment of an ebselen formulation is >99% pure as confirmed by HPLC. The synthesis of this formulation is provided by Rhodia Pharma Solutions and includes capsules that are hermetically sealed in blister packs. Each capsule contains 200 mg the ebselen formulation or SPI-1000 (placebo).

[7] = tested on: healthy males and females; test: Ph-1 placebo-controlled, randomized, single ascending dose study: safety; assay type: in vivo, humans
Protocol: as §1

rats [8] = test: Repeat dosing 28-day study, rats; assay type: in vivo, Sprague-Dawley rats
Protocol: as §2

[9] = Repeat dosing 28-day study, mini-pig; set-up: species or system Sinclair miniature swine; conditions: Sinclair, minipig, in vivo, read-out: no-observable-effect-level (NOAEL)
Protocol: as §2

[10] = Repeat dosing 28-day study, monkey; conditions: cynomolgus monkey, in vivo, Cynomolgus monkeys, read-out: no-observable-effect-level (NOAEL)
Protocol: as §2

[11] = 32 humans, single dose 200 mg to 1600 mg

COc1cc(C(C)=O)ccc1O [Apocynin]
effect on PPI deficit (NVHL rats; drinking water, target dose 100 mg/kg, P5 to P50, 100 mg/kg): prevented; also recorded: reversal
effect on PPI deficit (NVHL rats; drinking water, target dose 100 mg/kg, P5 to P50, listed as apocynin, 100 mg/kg): significant lesion by treatment interaction

O=c1c2ccccc2[se]n1-c1ccccc1 [Ebselen, 2-Phenyl-1,2-benzisoselenazol-3(2H)-one]
effect on NMDA receptor redox modulatory site [1]: modulates
neuron viability [1]: increases
Cmax ([2]; both sexes, human, in vivo, oral, range of means): 30.3 to 83.4 ng/mL
AUC(0-t) ([2]; both sexes, human, in vivo, oral, range of means, read-out: mean AUC0-t): 117 to 881 ng·h/mL
half-life ([2]; both sexes, human, in vivo, oral, range of means, read-out: mean t1/2): 6.4 to 16.7 h
Tmax ([2]; both sexes, human, in vivo, oral, range of medians, read-out: median Tmax): 1.5 to 2.3 h
predominate metabolite [2]: 2-glucuronyl selenobenzanilide
GSH levels in neurons (basal and stressed conditions) (neurons): increased
glutamate-induced GSH depletion (neurons; combined with glutamate): neutralized; also recorded: Neuroprotective effect
GSH levels in neurons (basal and stressed conditions) (neurons; listed as ebselen): dose-dependently increases; also recorded: dose-dependent rise
oral availability [3]: excellent
brain level as share of the plasma level [4]: about 20%
non-toxic effect level (mini-pigs): 178 mg/kg
effect on PPI deficit (NVHL rats; 10 mg/kg i.p. 5 days a week from P35 until PPI testing, 10 mg/kg): reversed; also recorded: significant lesion status by treatment interaction
effect on PPI deficit (NVHL rats; 10 mg/kg i.p. 5 days a week from P35 until PPI testing, listed as ebselen, 10 mg/kg): prevented
non-toxic effect level (rats [5]): 31.6 mg/kg
solubility in aqueous solutions [6]: slightly soluble
serious adverse events or discontinuation due to an AE [7, 11]: no serious adverse events
severity of AEs [7, 11]: mild or moderate
trends in clinical laboratory and ECG findings [7, 11]: No treatment- or dose-related trends
safety and tolerability ([7]; capsules, single oral dose up to 1600 mg): safe and well tolerated
no-observable-effect-level (NOAEL) (rats [8]): not identified
NOAEL at 28 days [9]: > 2000 mg/kg
NOAEL at 28 days [10]: 2000 mg/kg
